Results: US20260250318A1, “COMPOSITIONS AND METHODS FOR CROSSING THE BLOOD BRAIN BARRIER” (VOYAGER THERAPEUTICS, INC., priority 2022, published 2026)
Non-standard residues stand in square brackets, D forms with d. Residues, ends and D or L forms follow the SMILES beside them. *: point of attachment. Biotin = O=C1N[C@H]2[C@H](CS[C@H]2CCCCC(=O)*)N1; pS = N[C@@H](COP(=O)(O)O)C(=O)O

Assays:
His-tagged ALPL = biological target: T1, His-tagged ALPL (Homo sapiens, UniProt P05186); assay: Bio Layer Interferometry (BLI)/Octet binding of peptides to ALPL; conditions: for binding to ALPL by BLI/Octet: ALPL 1.56 to 100 nM
T1 sequence (P05186 18-501): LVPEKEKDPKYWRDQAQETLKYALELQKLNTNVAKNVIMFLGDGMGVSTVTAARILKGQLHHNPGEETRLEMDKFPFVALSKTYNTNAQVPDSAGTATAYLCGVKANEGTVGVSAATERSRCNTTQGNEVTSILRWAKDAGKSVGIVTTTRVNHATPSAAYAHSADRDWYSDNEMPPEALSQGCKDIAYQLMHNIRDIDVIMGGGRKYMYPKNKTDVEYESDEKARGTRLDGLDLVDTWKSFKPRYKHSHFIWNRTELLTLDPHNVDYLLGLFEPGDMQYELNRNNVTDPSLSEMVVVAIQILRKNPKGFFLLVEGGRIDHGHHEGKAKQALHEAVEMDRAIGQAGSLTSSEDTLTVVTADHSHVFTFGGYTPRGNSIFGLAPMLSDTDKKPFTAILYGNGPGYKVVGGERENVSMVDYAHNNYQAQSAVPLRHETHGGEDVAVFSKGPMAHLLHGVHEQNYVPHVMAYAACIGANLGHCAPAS
Description: Binding of the phospho-peptides of SEQ ID NO: 4512 and SEQ ID NO: 4513 to ALPL was also investigated using Bio Layer Interferometry (BLI)/Octet.

ALPL [1] = biological target: T2, ALPL (Homo sapiens, UniProt P05186); assay: biochemical; type: binding; conditions: for binding to ALPL by ELISA: ALPL coated on wells
T2 sequence (P05186 18-501): T1 sequence (P05186 18-501)
Description: Binding of the phospho-peptides of SEQ ID NO: 4512 and 4513 along with their non-phosphorylated counterparts, […] (SEQ ID NO: 4500) and […]

ALPL [2] = biological target: T2, ALPL; assay: SPR (Biacore 8K) binding of peptide ligands to ALPL; conditions: for binding to ALPL by SPR, his-tagged ALPL captured on chip: peptides 0 to 50 μM; for binding to ALPL by SPR, His-tagged ALPL captured on chip: 50 μM peptides or 250 nM capsids flowed over
Experimental: Binding and interaction between the peptides and the ALPL receptor were measured by Surface Plasmon Resonance (SPR) on a Biacore 8K instrument. The biotinylated peptides in Table 37 were captured on the streptavidin biosensor chip and 1000 nM of ALPL and buffer were passed over the peptides to monitor binding. […] His-tagged ALPL was then captured on the chip pre-immobilized with anti-His antibody, and 50 μM of the peptides in Table 37 or 250 nM of the AAV9 control capsid, the TTM-001 capsid variant (SEQ ID NO: 981), or the TTM-002 capsid variant (SEQ ID NO: 982) were flowed over the ALPL to check for binding. […] The longer peptides derived from TTM-002,
were also flowed over the his-tagged ALPL captured on the CM5 sensor chip pre-immobilized with anti-His antibody.
Binding and interaction between the phosho-peptides and the ALPL receptor were also measured by SPR. The biotinylated and phosphorylated peptides in Table 38 were captured on the streptavidin biosensor chip along with their non-phosphorylated counterparts, […] (SEQ ID NO: 4500) and […] (SEQ ID NO: 4503). ALPL and buffer were passed over the peptides to monitor binding. The concentration of ALPL used ranged from 0 to 500 nM (0 nM, 125 nM, 250 nM, and 500 nM).
In a second experiment, his-tagged ALPL was first captured on a CM5 sensor chip pre-immobilized with anti-His antibody. The phosphorylated peptides in Table 38 and their non-phosphorylated counterparts, […] (SEQ ID NO: 4500) and […] (SEQ ID NO: 4503) and buffer were flowed over the ALPL protein to monitor binding.

[3] = biological target: human ALPL (soluble protein used in the ELISA and SPR of Example 14) (human) (UniProt P05186); assay: SPR (Biacore), antibody captured on the chip, 1.6 to 1000 nM of human ALPL flowed over

| Molecule | Kd (His-tagged ALPL) [nM] | koff (His-tagged ALPL) [s⁻¹] | kon (His-tagged ALPL) [M⁻¹ s⁻¹] | binding to ALPL by BLI/Octet (His-tagged ALPL) | EC50 (ALPL [1]) [nM] | binding to ALPL by ELISA (ALPL [1]) | binding to ALPL by SPR, his-tagged ALPL captured on chip (ALPL [2]) | binding to ALPL by SPR, His-tagged ALPL captured on chip (ALPL [2]) | further results |
| --- | --- | --- | --- | --- | --- | --- | --- | --- | --- |
| NCCCC[C@H](NC(=O)[C@H](Cc1c[nH]cn1)NC(=O)[C@@H]1CCCN1C(=O)[C@H](COP(=O)(O)O)NC(=O)[C@H](CC(=O)O)NC(=O)[C@H](Cc1c[nH]cn1)NC(=O)CNC(=O)[C@H](CC(N)=O)NC(=O)[C@H](CO)NC(=O)CNC(=O)[C@H](CO)NC(=O)CNC(=O)CCCC[C@@H]1SC[C@@H]2NC(=O)N[C@@H]21)C(=O)N[C@@H](CO)C(=O)NCC(N)=O [SEQ ID NO: 4512] (Biotin-GSGSNGHD[pS]PHKSG-NH2) | 112 | 0.0026 | 23000 | demonstrated binding to ALPL | 763 | dose-dependent binding to ALPL | low signal with dose dependency |  |  |
| CC[C@H](C)[C@H](NC(=O)[C@@H](NC(=O)[C@H](CCCCN)NC(=O)[C@H](CO)NC(=O)CNC(=O)[C@H](CO)NC(=O)CNC(=O)CCCC[C@@H]1SC[C@@H]2NC(=O)N[C@@H]21)[C@@H](C)O)C(=O)N[C@@H](CC(N)=O)C(=O)NCC(=O)N[C@@H](Cc1c[nH]cn1)C(=O)N[C@@H](CC(=O)O)C(=O)N[C@@H](COP(=O)(O)O)C(=O)N1CCC[C@H]1C(=O)N[C@@H](Cc1c[nH]cn1)C(=O)N[C@@H](CCCCN)C(=O)N[C@@H](CO)C(=O)NCC(=O)N[C@@H](CCC(N)=O)C(=O)N[C@@H](CC(N)=O)C(=O)N[C@@H](CCC(N)=O)C(N)=O [SEQ ID NO: 4513] (Biotin-GSGSKTINGHD[pS]PHKSGQNQ-NH2) | 20.7 | 0.00067 | 32000 | demonstrated binding to ALPL | 4290 | dose-dependent binding to ALPL | low signal with dose dependency |  | binding to ALPL at a pH of 5.5 (His-tagged ALPL; pH 5.5): no binding was observed |
| GSGSLYYLSKTINGHDSPHKSGQNQQTLKF [longer peptide derived from TTM-002] |  |  |  |  |  |  |  | no binding to ALPL was observed |  |
| GSGSRLMNPLIDQYLYYLSKTINGHDSPHKSGQNQQTLKFSVAGPSNMAV [longer peptide derived from TTM-002] |  |  |  |  |  |  |  | no binding to ALPL was observed |  |
| Human Alkaline Phosphatase/ALPL Antibody, clone B4-78 (MAB1448-SP) |  |  |  |  |  |  |  |  | Kd [3]: 215 nM; koff [3]: 0.0015 s⁻¹; kon [3]: 6800 M⁻¹ s⁻¹ |
